For one data set, the target named is T1, COX-1 (Homo sapiens, UniProt P23219).
T1 construct: Fresh blood from male or female volunteers is collected into vacutainers containing no anticoagulants; from tissue; host or cells: fresh human whole blood without anticoagulant, from male or female volunteers, allowed to clot for 1 h at 37 °C
Kind of data set: Human whole blood cyclooxygenase assay, COX-1 (clotting-induced TXB2 production). As to conditions: clotting 1 h, n=3, read-out: IC50 for inhibition of clotting-induced TXB2 level. The class given is cell-based. Here is the method:
(§1) Whole blood provides a protein and cell-rich milieu for the study of biochemical efficacy of anti-inflammatory compounds such as COX-2 inhibitors and NSAIDs. To study the inhibitory activities of these compounds on the two isoforms of cyclooxygenase (COX-1 and COX-2), human blood is either stimulated with lipopolysaccharide (LPS) for 24 hours to induce COX-2 or the blood is allowed to clot spontaneously to activate COX-1. The production of prostaglandin E2 (PGE2) and thromboxane B2 (TXB2) are measured by immunoassay at the end of the incubation as readouts of COX-2 and COX-1 activity, respectively.
(§2) Human whole blood assays for COX-1 and COX-2 activity, previously reported (Brideau et al, 1996) are performed as described below.
Fresh blood from male or female volunteers is collected into vacutainers containing no anticoagulants. These subjects have no apparent inflammatory conditions and have not taken any NSAIDs for at least 7 days prior to blood collection. Aliquots of 500 μL are immediately transferred to polypropylene tubes preloaded with 2 μL of DMSO or 2 μL of test compounds. The tubes are vortexed and incubated at 37° C. for 1 h to allow the blood to clot. At the end of the incubation, serum is obtained by centrifugation (3,000 rpm for 10 min at […]). […]

Data set [1] concerns carrageenan-induced rat paw edema. Kind of data set: Carrageenan-induced rat paw edema assay. The conditions noted are these: oral, 1 hr pretreatment, Sprague-Dawley rats, paw volume at 3 h, read-out: inhibition of carrageenan-induced edema response. The format is in vivo. The procedure:
The carrageenan-induced rat paw edema assay is an established assay for evaluating the efficacy of conventional, non-selective NSAIDs in acute inflammation (Winter and Flataker, 1965; Mukherjee et al., 1996; Vinegar et al., 1987).
Male Sprague-Dawley rats (200–250 g) are fasted for 16–18 h prior to oral administration of either the vehicle (0.5% methocel) or test compound. One hour later, a line was drawn using a permanent marker at a level above the ankle in one hind paw to define the area of the paw to be monitored. The paw volume (V0) is measured using a plethysmometer (Ugo-Basile, Italy) based on the Archimedes principle of water displacement. The rats are then injected subplantarly with 0.05 mL of a 1% carrageenan (Sigma Chem.) solution in saline using a syringe with a 27-gauge needle (i.e. 500 μg carrageenan per paw). Three hours later, the paw volume (V3) is measured again and the increases in paw volume (V3−V0) is calculated. Paw edema is compared with the vehicle-control group and the percent inhibition calculated taking the values in the control group as 0%.

For a further data set, the target named is T2, COX-2 (Homo sapiens, UniProt P35354).
T2 construct: Fresh blood is collected in heparinized tubes by venipuncture from healthy male volunteers; from tissue; host or cells: fresh heparinized human whole blood from healthy male volunteers, LPS-stimulated for 24 h
T2 sequence (P35354 18-604): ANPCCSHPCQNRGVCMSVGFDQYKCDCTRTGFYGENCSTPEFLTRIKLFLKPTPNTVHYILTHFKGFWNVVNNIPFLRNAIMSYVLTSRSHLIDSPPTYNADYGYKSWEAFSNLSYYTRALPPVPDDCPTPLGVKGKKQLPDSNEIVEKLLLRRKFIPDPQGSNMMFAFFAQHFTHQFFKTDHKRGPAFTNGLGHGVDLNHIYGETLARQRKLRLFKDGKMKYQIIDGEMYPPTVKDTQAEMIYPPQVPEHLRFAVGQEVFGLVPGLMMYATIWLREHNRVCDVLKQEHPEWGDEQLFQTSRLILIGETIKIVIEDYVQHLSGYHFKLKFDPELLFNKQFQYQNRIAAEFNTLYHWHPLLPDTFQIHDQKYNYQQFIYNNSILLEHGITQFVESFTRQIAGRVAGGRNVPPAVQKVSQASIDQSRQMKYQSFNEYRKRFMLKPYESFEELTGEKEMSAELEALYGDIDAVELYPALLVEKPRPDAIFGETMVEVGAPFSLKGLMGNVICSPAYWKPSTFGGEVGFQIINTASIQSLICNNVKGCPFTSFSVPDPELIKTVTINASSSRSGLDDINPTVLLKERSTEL
As to the kind of experiment: Human whole blood cyclooxygenase assay, COX-2 (LPS-induced PGE2 production). The format is cell-based. The procedure: as §1, §2
Fresh blood is collected in heparinized tubes by venipuncture from healthy male volunteers. These subjects have no apparent inflammatory conditions and have not taken any NSAIDs for at least 7 days prior to blood collection. The blood is initially pre-incubated with bacterial lipopolysaccharide (LPS) at 100 μg/ml (Sigma Chem, #L-2630 from E. coli, serotype 0111:B4; diluted in 0.1% w/v bovine serine albumin in phosphate buffered saline). Five minutes later, 500 μL aliquots of the LPS-treated blood aree incubated with 2 μL vehicle (DMSO) or 2 μL of test compounds in DMSO for 24 hr at 37° C. (for induction of COX-2). […]

A further data set deals with gastric erosions. As to the kind of experiment: Gastric erosion model in rats (co-dosed with aspirin). The class given is in vivo, rat. As to conditions: Wistar rats, compared to rofecoxib dosed with aspirin, 3 hr. The procedure: The gastric protective effects of the combination of the present invention co-administered with aspirin may be evaluated in the following assay.
Male Wistar rats (200–250 g) were fasted for 16–18 h prior to use for experiment. Aspririn, rofecoxib in combination with aspirin (dosed separately), or test compound in combination with aspirin (dosed separately) were given on the morning of the experiment at a dosing volume of 1 ml/kg in 0.5% methocel. Three hr later, the animals were euthanized by CO2 inhalation and the stomach removed, rinsed in saline and prepared for imaging processing. Microscopic pictures of the stomach were taken using a digital camera and gastric erosions were measured using an imaging software by an observer unaware of the treatment groups. The length of gastric erosions was measured in mm and the total length of all erosions from each stomach was obtained and used as gastric damage score.
This model is also described in S. Fiorucci, et al., Gastroenterology, vol. 123, pp. 1598–1606, 2002 and M. Souza, et al., Am. J. Physiol. Gastrointest. Liver Physiol., vol. 285, pp. G54–G61, 2003.

Each structure is given as a SMILES string.

One may read the IC50 as the concentration needed to halve the response being measured. One may read the inhibition as the change of the read-out against control, counted positive when it falls.

T1 sequence (P23219 24-599): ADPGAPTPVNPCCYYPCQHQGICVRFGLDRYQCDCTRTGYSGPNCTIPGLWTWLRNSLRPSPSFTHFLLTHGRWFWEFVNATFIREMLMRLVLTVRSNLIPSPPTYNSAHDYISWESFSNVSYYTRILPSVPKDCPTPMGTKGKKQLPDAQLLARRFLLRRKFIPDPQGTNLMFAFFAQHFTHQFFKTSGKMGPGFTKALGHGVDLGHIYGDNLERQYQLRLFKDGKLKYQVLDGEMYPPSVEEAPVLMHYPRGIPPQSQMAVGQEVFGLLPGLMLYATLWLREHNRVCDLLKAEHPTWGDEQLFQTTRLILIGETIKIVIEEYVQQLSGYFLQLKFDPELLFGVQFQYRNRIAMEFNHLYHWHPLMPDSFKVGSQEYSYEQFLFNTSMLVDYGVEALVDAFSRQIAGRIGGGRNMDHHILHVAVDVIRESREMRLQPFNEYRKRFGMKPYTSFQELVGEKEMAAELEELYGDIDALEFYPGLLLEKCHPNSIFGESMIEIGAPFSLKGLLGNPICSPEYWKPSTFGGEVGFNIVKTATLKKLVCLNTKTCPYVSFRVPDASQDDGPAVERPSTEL

Turning to `CC(=O)OC/C(=C(\C(=O)OCCCCCCO[N+](=O)[O-])c1ccccc1)c1ccc(S(C)(=O)=O)cc1` [Example 1, 6-(nitrooxy)hexyl (2Z)-4-(acetyloxy)-3-[4-(methylsulfonyl)phenyl]-2-phenylbut-2-enoate], the IC50 on COX-1 came to 7.8 ± 2.6 µM; at COX-2 (LPS-stimulated human whole blood, 24 hr, n=6, read-out: IC50 for the inhibition of PGE2 production in a human whole blood assay), 0.22 ± 0.04 µM. Besides, the inhibition at 1 mg/kg in data set [1] is 49%. Besides, on COX-2 (in vitro human peripheral blood assay, ratio of COX-1 to COX-2 IC50), the COX1/COX2 selectivity stood at 35 fold. Besides, in the data set with gastric erosions, the “gastric protection (gastric damage score)” value is “significant gastric protection”.
